Measurements: patent US11472805B2, “Tricyclic compounds and their use as phosphodiesterase inhibitors” (Pfizer Inc., priority 2015, dated 2022)
Where two headings read alike, the source gives them in different places.

Legend:
Format in all cases: biochemical
Human PDE4A3 = Human PDE4A3 (Homo sapiens (Human), UniProt P27815); assay: PDE4A3 Scintillation Proximity Assay (SPA), inhibition of enzyme activity; conditions: read-out: Human PDE4A FL
Method in brief: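 Recombinant human PDE4A3 expressed in insect cells, purified via Ni-NTA, anti-FLAG and size exclusion. SPA run 30 min at 25 °C in 50 mM Tris pH 7.5, 1.3 mM MgCl2, 0.01% Brij with 1 μM cAMP (20 nM 3H-cAMP), […], ~20% substrate conversion; stopped with yttrium silicate beads.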

Human PDE4B1 = Human PDE4B1 (Homo sapiens (Human), UniProt Q07343, S133E/S654A/S659A/S661A); assay: PDE4B1 Scintillation Proximity Assay (SPA), inhibition of enzyme activity; conditions: read-out: Human PDE4B FL
Method in brief: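 His-tagged enzyme from baculovirus-infected insect cells, Ni-NTA purified. SPA with 1 μM cAMP (20 nM 3H-cAMP tracer) in 50 mM Tris pH 7.5, 1.3 mM MgCl2, 0.01% Brij, […] PDE4B enzyme for ~20% substrate conversion; 30 min at 25 °C, stopped with yttrium silicate beads, read after 8 h settling.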

Human PDE4C1 = Human PDE4C1 (Homo sapiens (Human), UniProt Q08493); assay: PDE4C1 Scintillation Proximity Assay (SPA), inhibition of enzyme activity; conditions: read-out: Human PDE4C FL
Description: The PDE4A, PDE4B, PDE4C and PDE4D binding affinity for the compounds of the present invention was determined utilizing the following biological assay(s):
The recombinant Bacmid was isolated and used to transfect insect cells to generate a viral stock. To generate cell paste for purification, insect cells were infected with the virus stock and cells were harvested 72 hours after infection. Insect cell paste was lysed and after centrifugation, the supernatant was batch bound to Ni-NTA agarose (GE Healthcare) and eluted with 250 mM imidazole. This eluate was diluted with FLAG buffer (50 mM Tris HCL pH 7.5, 100 mM NaCl, 5% Glycerol, 1 mM TCEP with protease inhibitors) and batch bound to ant-FLAG M2 agarose (Sigma) overnight at 4° C. The agarose was packed into a column, washed with buffer and eluted with buffer containing elute using 250 ug/ml Flag-peptide. Fractions were analyzed using SDS-PAGE Coomassie blue staining and pooled based on purity. Pooled fractions were chromatographed on a S200 120 ml column (GE Healthcare) in 50 mM Tris HCL pH 7.5, 150 mM NaCl, 10% Glycerol, 2 mM TCEP with protease inhibitors. PDE4C1 fractions were analyzed by SDS-PAGE Coomassie blue staining, pooled based on purity, dialyzed against 50 mM Tris HCL pH 7.5, 100 mM NaCl, 20% Glycerol, 2 mM TCEP, frozen and stored at −80° C.
The PDE4A3, PDE4B1, PDE4C1 and PDE4D3 assays use the Scintillation Proximity Assay (SPA) technology to measure the inhibition of human recombinant PDE4A1, PDE4B3, PDE4C1, and PDE4D3 enzyme activity by compounds in vitro. The PDE4A1, PDE4B3, PDE4C1, and PDE4D3 assays are run in parallel using identical parameters, except for the concentration of enzyme ([…]). The assays are performed in a 384-well format with 50 uL assay buffer (50 mM TRIS pH7.5; 1.3 mM MgCl2; 0.01% Brij) containing enough PDE4A3, PDE4B1, PDE4C1, and PDE4D to convert ˜20% of substrate (1 μM cAMP consisting of 20 nM 3H-cAMP+[…] cold cAMP) and a range of inhibitors. Reactions are incubated for 30 min at 25° C. The addition of 20 uL of 8 mg/ml yitrium silicate SPA beads (Perkin Elmer) stops the reaction. The plates are sealed (TopSeal, Perkin Elmer) and the beads are allowed to settle for 8 hrs, after which they are read on the Trilux Microbeta overnight.

human PDE4D3 = human PDE4D3 (Homo sapiens (Human), UniProt Q08499); assay: PDE4D3 Scintillation Proximity Assay (SPA), inhibition of enzyme activity; conditions: read-out: Human PDE4D FL
Method in brief: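 His-tagged human PDE4D3 (aa 50–672), expressed in insect cells, hydrolysed 1 μM cAMP (3H tracer plus cold) for 30 min at 25° C in 50 mM Tris pH 7.5, 1.3 mM MgCl2 and 0.01% Brij. Enzyme level was set for ~20% conversion. Product was read by yttrium silicate SPA beads after 8 h settling.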

[1] = Table 9, geometric mean of 2-9 determinations unless otherwise indicated
[2] = Table 10, geometric mean of 2-9 determinations unless otherwise indicated

Chain of Human PDE4B1 (Q07343 122-736 S133E/S654A/S659A/S661A): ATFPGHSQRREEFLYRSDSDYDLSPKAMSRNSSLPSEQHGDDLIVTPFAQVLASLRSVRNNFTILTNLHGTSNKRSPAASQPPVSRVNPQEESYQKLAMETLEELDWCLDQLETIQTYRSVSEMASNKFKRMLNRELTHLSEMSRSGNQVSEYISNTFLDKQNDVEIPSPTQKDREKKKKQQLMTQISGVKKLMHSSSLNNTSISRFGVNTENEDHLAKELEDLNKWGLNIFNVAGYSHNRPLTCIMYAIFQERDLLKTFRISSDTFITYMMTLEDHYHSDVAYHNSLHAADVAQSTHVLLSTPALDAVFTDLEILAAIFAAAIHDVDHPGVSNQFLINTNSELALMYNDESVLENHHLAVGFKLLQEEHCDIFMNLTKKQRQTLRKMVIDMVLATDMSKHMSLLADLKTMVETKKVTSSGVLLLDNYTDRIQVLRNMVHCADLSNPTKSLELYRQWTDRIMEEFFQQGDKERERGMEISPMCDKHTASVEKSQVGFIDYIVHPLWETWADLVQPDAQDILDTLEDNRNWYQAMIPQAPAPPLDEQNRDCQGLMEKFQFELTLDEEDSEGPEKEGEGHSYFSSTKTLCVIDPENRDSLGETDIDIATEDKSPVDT
Chain of Human PDE4C1 (Q08493 2-712): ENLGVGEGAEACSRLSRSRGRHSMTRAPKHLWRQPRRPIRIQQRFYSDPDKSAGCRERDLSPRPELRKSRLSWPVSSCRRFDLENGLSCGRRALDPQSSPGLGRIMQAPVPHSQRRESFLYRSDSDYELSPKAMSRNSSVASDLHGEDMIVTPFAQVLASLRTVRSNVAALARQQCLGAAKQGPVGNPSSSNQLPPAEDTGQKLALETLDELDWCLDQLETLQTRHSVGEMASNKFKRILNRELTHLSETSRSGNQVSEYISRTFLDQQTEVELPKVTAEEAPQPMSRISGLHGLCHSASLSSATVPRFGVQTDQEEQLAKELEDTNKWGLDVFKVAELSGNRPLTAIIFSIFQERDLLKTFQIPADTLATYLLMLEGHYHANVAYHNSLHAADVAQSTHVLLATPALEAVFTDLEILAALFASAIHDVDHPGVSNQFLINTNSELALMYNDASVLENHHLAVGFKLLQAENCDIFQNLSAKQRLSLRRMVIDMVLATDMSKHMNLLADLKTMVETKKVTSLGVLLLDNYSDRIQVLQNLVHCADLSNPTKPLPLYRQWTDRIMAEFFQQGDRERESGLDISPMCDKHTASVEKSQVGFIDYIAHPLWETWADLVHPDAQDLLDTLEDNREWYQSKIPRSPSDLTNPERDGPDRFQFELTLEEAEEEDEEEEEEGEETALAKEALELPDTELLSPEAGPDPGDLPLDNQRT
Chain of Human PDE4A3 (P27815 other isoform, or with tags, fused parts or gaps): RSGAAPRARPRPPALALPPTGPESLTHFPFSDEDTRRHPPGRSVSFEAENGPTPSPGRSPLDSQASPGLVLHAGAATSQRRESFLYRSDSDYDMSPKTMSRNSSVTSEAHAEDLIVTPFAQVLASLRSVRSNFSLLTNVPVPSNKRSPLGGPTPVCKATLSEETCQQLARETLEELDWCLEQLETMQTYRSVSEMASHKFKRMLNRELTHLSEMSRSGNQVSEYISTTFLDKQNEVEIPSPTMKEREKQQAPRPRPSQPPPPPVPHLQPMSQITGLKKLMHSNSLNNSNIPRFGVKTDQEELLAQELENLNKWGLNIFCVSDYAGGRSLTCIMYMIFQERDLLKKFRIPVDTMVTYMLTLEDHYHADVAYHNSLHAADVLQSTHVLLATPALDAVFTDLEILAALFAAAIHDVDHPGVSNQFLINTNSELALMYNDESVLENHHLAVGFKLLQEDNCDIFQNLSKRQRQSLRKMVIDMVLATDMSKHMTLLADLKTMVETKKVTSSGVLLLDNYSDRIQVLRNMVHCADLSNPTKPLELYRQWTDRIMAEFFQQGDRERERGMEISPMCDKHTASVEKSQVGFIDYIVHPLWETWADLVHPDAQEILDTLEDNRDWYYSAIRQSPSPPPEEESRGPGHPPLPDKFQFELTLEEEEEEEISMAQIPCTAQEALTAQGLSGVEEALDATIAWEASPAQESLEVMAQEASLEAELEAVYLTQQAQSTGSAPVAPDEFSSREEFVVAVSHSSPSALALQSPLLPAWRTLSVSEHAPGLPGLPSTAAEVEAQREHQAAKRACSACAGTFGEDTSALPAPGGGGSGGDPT
Chain of human PDE4D3 (Q08499 186-808): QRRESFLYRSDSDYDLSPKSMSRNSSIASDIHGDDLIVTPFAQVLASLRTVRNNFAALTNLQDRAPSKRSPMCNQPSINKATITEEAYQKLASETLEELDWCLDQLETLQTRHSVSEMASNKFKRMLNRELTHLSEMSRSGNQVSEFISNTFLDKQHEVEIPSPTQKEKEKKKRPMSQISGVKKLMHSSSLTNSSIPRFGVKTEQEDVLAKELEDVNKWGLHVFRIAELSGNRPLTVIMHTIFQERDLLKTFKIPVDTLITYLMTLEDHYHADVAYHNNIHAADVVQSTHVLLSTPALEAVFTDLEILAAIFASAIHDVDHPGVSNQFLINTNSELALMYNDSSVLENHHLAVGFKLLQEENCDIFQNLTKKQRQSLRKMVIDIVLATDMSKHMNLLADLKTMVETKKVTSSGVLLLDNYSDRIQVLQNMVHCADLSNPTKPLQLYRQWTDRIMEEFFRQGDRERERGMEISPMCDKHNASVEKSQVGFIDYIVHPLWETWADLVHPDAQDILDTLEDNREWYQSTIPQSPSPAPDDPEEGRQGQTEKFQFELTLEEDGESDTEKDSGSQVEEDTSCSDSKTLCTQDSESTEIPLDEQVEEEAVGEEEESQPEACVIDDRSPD

SMILES	IC50 (Human PDE4A3; [1]) [nM]	IC50 (Human PDE4B1; [1]) [nM]	IC50 (Human PDE4C1; [1]) [nM]	IC50 (human PDE4D3; [1]) [nM]	IC50 (Human PDE4A3; [2]) [nM]	IC50 (Human PDE4B1; [2]) [nM]	IC50 (Human PDE4C1; [2]) [nM]	IC50 (human PDE4D3; [2]) [nM]
O=C1c2c(-c3ccc(Cl)cc3)c3c(n2CCN1C1CC1)CCCO3 [Example 75, 10-(4-Chlorophenyl)-8-cyclopropyl-3,4,7,8-tetrahydro-2H-pyrano[2′,3′:4,5]pyrrolo[1,2-a]pyrazin-9(6H)-one]	1.26	3.99	11.7	286				
O=C1c2c(-c3cncc(Cl)c3)c3ncccc3n2CCN1C1CC1 [Example 51, 10-(5-Chloropyridin-3-yl)-8-cyclopropyl-7,8-dihydropyrido[2′,3′:4,5]pyrrolo[1,2-a]pyrazin-9(6H)-one]	86.7	26.1	694	2010				
CCCc1ccnc(N2CCn3c(c(-c4ccc(Cl)cc4)c4ncccc43)C2=O)n1 [Example 97, 10-(4-Chlorophenyl)-8-(4-propylpyrimidin-2-yl)-7,8-dihydropyrido[2′,3′:4,5]pyrrolo[1,2-a]pyrazin-9(6H)-one]					287	1040	526	1130
Cc1cccnc1-c1c2n(c3cccnc13)CCN(C1CC1)C2=O [Example 84, 8-Cyclopropyl-10-(3-methylpyridin-2-yl)-7,8-dihydropyrido[2′,3′:4,5]pyrrolo[1,2-a]pyrazin-9(6H)-one]					15500	> 25800	> 30000	> 30000
N#Cc1ccc(-c2c3n(c4scnc24)CCN(C2CC2)C3=O)cc1F [Example 72, 4-(7-Cyclopropyl-8-oxo-5,6,7,8-tetrahydro[1,3]thiazolo[4′,5′:4,5]pyrrolo[1,2-a]pyrazin-9-yl)-2-fluorobenzonitrile]	3.53	4.36	15.1	90.4				
Cc1cc(C#N)ccc1-c1c2n(c3cccnc13)CCN(C1CC1)C2=O [Example 50, 4-(8-Cyclopropyl-9-oxo-6,7,8,9-tetrahydropyrido[2′,3′:4,5]pyrrolo[1,2-a]pyrazin-10-yl)-3-methylbenzonitrile]	2.99	6.9	9.62	356				
Cc1cc(C#N)ccc1-c1c2n(c3scnc13)CCN(C1CC1)C2=O [Example 14, 4-(7-Cyclopropyl-8-oxo-5,6,7,8-tetrahydro[1,3]thiazolo[4′,5′:4,5]pyrrolo[1,2-a]pyrazin-9-yl)-3-methylbenzonitrile]	18.5	19.3	79	2090				
Cc1ccc(C#N)cc1-c1c2n(c3cccnc13)CCN(C1CC1)C2=O [Example 60, 3-(8-Cyclopropyl-9-oxo-6,7,8,9-tetrahydropyrido[2′,3′:4,5]pyrrolo[1,2-a]pyrazin-10-yl)-4-methylbenzonitrile]	11.8	11.2	99	397				
Cc1cc(-c2c3n(c4cccnc24)CCN(C2CC2)C3=O)ccc1F [Example 37, 8-Cyclopropyl-10-(4-fluoro-3-methylphenyl)-7,8-dihydropyrido[2′,3′:4,5]pyrrolo[1,2-a]pyrazin-9(6H)-one]	2.52	3.76	3.3	98.7				
O=C1c2c(-c3ccc(F)c(Cl)c3)c3ncccc3n2CCN1C1CC1 [Example 36, 10-(3-Chloro-4-fluorophenyl)-8-cyclopropyl-7,8-dihydropyrido[2′,3′:4,5]pyrrolo[1,2-a]pyrazin-9(6H)-one]	< 0.67	< 1.1	3.48	28.1				
O=C1c2c(-c3ccc4c(c3)CCO4)c3ncccc3n2CCN1C1CC1 [Example 35, 8-Cyclopropyl-10-(2,3-dihydro-1-benzofuran-5-yl)-7,8-dihydropyrido[2′,3′:4,5]pyrrolo[1,2-a]pyrazin-9(6H)-one]	2.08	4.15	5.52	141				
Cc1cc(Cl)ccc1-c1c2n(c3cccnc13)CCN(c1ncccn1)C2=O [Example 73, 10-(4-Chloro-2-methylphenyl)-8-(pyrimidin-2-yl)-7,8-dihydropyrido[2′,3′:4,5]pyrrolo[1,2-a]pyrazin-9(6H)-one]	7.66	25.2	122	700				
O=C1c2c(-c3ccc(Cl)cc3)c3ncccc3n2CCN1c1ncccn1 [Example 1, 10-(4-Chlorophenyl)-8-(pyrimidin-2-yl)-7,8-dihydropyrido[2′,3′:4,5]pyrrolo[1,2-a]pyrazin-9(6H)-one]	18.8	16.1	182	1230				
COCCCCCCN1CCn2c(c(-c3ccc(Cl)cc3)c3ncccc32)C1=O [Example 96, 10-(4-Chlorophenyl)-8-(6-methoxyhexyl)-7,8-dihydropyrido[2′,3′:4,5]pyrrolo[1,2-a]pyrazin-9(6H)-one]					87.5	98.4	52.8	137
COc1ccc(-c2c3n(c4cccnc24)CCN(C2CC2)C3=O)c(F)c1 [Example 54, 8-Cyclopropyl-10-(2-fluoro-4-methoxyphenyl)-7,8-dihydropyrido[2′,3′:4,5]pyrrolo[1,2-a]pyrazin-9(6H)-one]	21.2	54.6	35.8	3770				
O=C1c2c(-c3ccc(Cl)cc3)c3nccnc3n2CCN1C1CC1 [Example 18, 10-(4-Chlorophenyl)-8-cyclopropyl-7,8-dihydropyrrolo[1,2-a:4,5-b′]dipyrazin-9(6H)-one]	4.12	10.2	24.4	345				
O=C1c2c(-c3cncnc3)c3ncccc3n2CCN1C1CC1 [Example 55, 8-Cyclopropyl-10-(pyrimidin-5-yl)-7,8-dihydropyrido[2′,3′:4,5]pyrrolo[1,2-a]pyrazin-9(6H)-one]	222	111	500	3700				
O=C1c2c(-c3ccc(Cl)cc3)c3ccccc3n2CCN1C1CC1 [Example 12, 10-(4-Chlorophenyl)-2-cyclopropyl-3,4-dihydropyrazino[1,2-a]indol-1(2H)-one]	12	19.2	23.5	3090				
Cc1csc(-c2c3n(c4cccnc24)CCN(C2CC2)C3=O)n1 [Example 82, 8-Cyclopropyl-10-(4-methylthiazol-2-yl)-7,8-dihydropyrido[2′,3′:4,5]pyrrolo[1,2-a]pyrazin-9(6H)-one]					11100	18500	4820	> 30000
O=C1c2c(-c3ccc(Cl)c(F)c3)c3ncncc3n2CCN1C1CC1 [Example 7, 10-(4-Chloro-3-fluorophenyl)-8-cyclopropyl-7,8-dihydropyrazino[1′,2′: 1,5]pyrrolo[3,2-d]pyrimidin-9(6H)-one]	14.3	2.53	71.4	159				
